Experimental data published in patent US7739055B2, “Methods and systems for generating and evaluating peptides” (priority 2005, dated 2010).
Values after ≈ are worked out from the molar mass of the structure shown. Where two headings read alike, the source gives them in different places. Where a SMILES comes first, the peptide text is derived from it.

Legend:
[1] = tested on: Escherichia coli
[2] = tested on: B. cereus; conditions: 24 h
[3] = tested on: Smith Diffuse strain of Staphylococcus aureus
[4] = tested on: Sterne strain of Bacillus anthracis

Compound: CC[C@H](C)[C@H](NC(=O)[C@H](CC(C)C)NC(=O)[C@H](C)NC(=O)[C@@H]1CCCN1C(=O)[C@H](Cc1ccccc1)NC(=O)[C@@H](NC(=O)[C@H](CCCCN)NC(=O)[C@H](CO)NC(=O)[C@H](C)NC(=O)[C@@H](NC(=O)[C@H](CCCNC(=N)N)NC(=O)[C@H](Cc1ccccc1)NC(=O)[C@@H](NC(=O)[C@@H](NC(=O)[C@@H]1CCCN1C(=O)[C@@H](N)CC(C)C)C(C)C)C(C)C)C(C)C)C(C)C)C(=O)N[C@@H](CO)C(=O)N[C@@H](CCCCN)C(=O)N[C@@H](CC(C)C)C(=O)N[C@H](C(=O)O)[C@@H](C)O [Peptide 35] (H-LPVVFRVASKVFPALISKLT-OH; N-terminus and C-terminus assumed)
- MIC E. coli [1]: + (key: +: MIC greater than 256 ug/mL; ++: MIC greater than 128 ug/mL, not sufficiently soluble to test as 256 ug/mL)
- MIC B. cereus [2]: 256 µg/mL (≈ 117 µM)
- MIC S. aureus ([3]; Smith Diffuse strain of): 256 µg/mL (≈ 117 µM)
- MIC B. anthracis [4]: 128 µg/mL (≈ 58.6 µM)

Compound: CC(C)C[C@H](NC(=O)[C@H](C)NC(=O)[C@H](CO)NC(=O)[C@H](Cc1ccccc1)NC(=O)[C@@H](NC(=O)[C@H](CO)NC(=O)[C@@H]1CCCN1C(=O)[C@@H](NC(=O)[C@@H](NC(=O)[C@H](CCCCN)NC(=O)[C@H](CO)NC(=O)[C@H](C)NC(=O)[C@H](CC(C)C)NC(=O)[C@H](CCCCN)NC(=O)[C@H](Cc1ccccc1)NC(=O)[C@@H](NC(=O)[C@H](Cc1ccccc1)NC(=O)[C@@H](N)CO)C(C)C)C(C)C)C(C)C)C(C)C)C(=O)N[C@H](C(=O)N[C@@H](CCCNC(=N)N)C(=O)O)[C@@H](C)O [Peptide 43] (H-SFVFKLASKVVPSVFSALTR-OH; N-terminus and C-terminus assumed)
- MIC E. coli ([1]; 24 h): 256 µg/mL
- MIC B. cereus [2]: 256 µg/mL
- MIC S. aureus ([3]; Smith Diffuse strain of): 256 µg/mL
- MIC B. anthracis [4]: 128 µg/mL

Compound: CC(C)C[C@H](NC(=O)[C@H](CCCCN)NC(=O)[C@H](Cc1ccccc1)NC(=O)[C@H](CC(C)C)NC(=O)[C@@H](NC(=O)[C@@H]1CCCN1C(=O)[C@@H](N)CC(C)C)C(C)C)C(=O)N[C@@H](C)C(=O)N[C@@H](CO)C(=O)N[C@@H](CCCCN)C(=O)N[C@H](C(=O)N[C@@H](Cc1ccccc1)C(=O)N1CCC[C@H]1C(=O)N[C@@H](C)C(=O)N[C@H](C(=O)N[C@@H](Cc1ccccc1)C(=O)N[C@@H](CO)C(=O)N[C@@H](CO)C(=O)N[C@@H](CC(C)C)C(=O)N[C@@H](CCCCN)C(=O)O)C(C)C)C(C)C [Peptide 63] (H-LPVLFKLASKVFPAVFSSLK-OH; N-terminus and C-terminus assumed)
- MIC E. coli ([1]; 24 h): 256 µg/mL (≈ 117 µM)
- MIC B. cereus [2]: 64 µg/mL (≈ 29.2 µM)
- MIC S. aureus ([3]; Smith Diffuse strain of): 128 µg/mL (≈ 58.4 µM)
- MIC B. anthracis [4]: 128 µg/mL (≈ 58.4 µM)

Compound: CC(C)C[C@H](NC(=O)[C@@H](NC(=O)[C@@H]1CCCN1C(=O)[C@H](CC(C)C)NC(=O)[C@@H](N)Cc1ccccc1)C(C)C)C(=O)N[C@H](C(=O)N[C@@H](CCCCN)C(=O)N[C@H](C(=O)N[C@@H](Cc1ccccc1)C(=O)N[C@@H](CCCNC(=N)N)C(=O)N[C@@H](Cc1ccc(O)cc1)C(=O)N[C@@H](CO)C(=O)N[C@@H](CCCCN)C(=O)N[C@@H](CCCCN)C(=O)N[C@H](C(=O)N[C@@H](C)C(=O)N[C@@H](C)C(=O)NCC(=O)N[C@@H](CS)C(=O)N[C@@H](Cc1ccccc1)C(=O)O)[C@@H](C)O)C(C)C)C(C)C [Shuffled 5] (H-FLPVLVKVFRYSKKTAAGCF-OH; N-terminus and C-terminus assumed)
- MIC E. coli ([1]; first concentration that prohibits growth by OD at 24 hours, Table 1): ++ (MIC greater than 128 ug/mL, not sufficiently soluble to test as 256 ug/mL)
- MIC B. cereus [2]: 64 µg/mL (≈ 28.1 µM)
- MIC S. aureus ([3]; Smith Diffuse strain, Table 1): + (MIC greater than 256 ug/mL)
- MIC B. anthracis [4]: + (key: +: MIC greater than 256 ug/mL; ++: MIC greater than 128 ug/mL, not sufficiently soluble to test as 256 ug/mL)
